The assay deals with HepG2 tumor. Kind of assay: Example 2: tumor volume, tumor weight and TGI in HepG2 tumor bearing humanized mice. Format: in vivo, Mus musculus. As to conditions: Example 2, D30. How it is done:
1. Species: Mus musculus • Strain: Advanced immunodeficiency mouse. • (NOD.CgPrkdc^scid Il2rg) • Source: Trineo Biotechnology Co., LTD.
Each group contains six mice. The human hepatocellular carcinoma cell line HepG2 were subcutaneously inoculated to the advanced immune-deficiency mice. Total of 42 mice were included in this study.
2.2. […] The subcutaneous injection volume was […].
3.1. […] The injection was performed using insulin syringe with the dosage of 0.3 mg/kg or 1 mg/kg and the injection volume was 5 mL/kg. […] The reference item was administered for G1. The procedure followed the standards of sample administration. The starting day of test item administration was denoted as the first experimental day (DO).
3.2. […] The injection was performed using insulin syringe with the dosage of 20 mg/kg and injection volume of 10 mL/kg. […] The procedure followed the standards of sample administration.
The measurement was performed from the next day of the inoculation. The tumor volumes were measured and recorded twice a week (Mon., Thur.). Tumor volume was calculated by ellipsoid equation according to the records ((major axis×minor axis×minor axis)×(π/6)).
Tumor volumes were used to calculate tumor growth inhibition (TGI) rates according to the following formula: TGI (%)=[1−(Ti−T0)/(Ci−C0)]×100, where Ti and Ci indicate the mean tumor volume in the treatment groups and vehicle group at the end of the experiment (Day 30). Whereas, T0 and C0 indicate the mean tumor volumes in the treatment group and vehicle group at the beginning of the experiment (Day 0).
Mice were sacrificed by CO2 euthanasia at the end of the study duration, and the connective tissue around tumor was resected. The tumor samples were then weighed and cut equally into three sections if the tumor weight over 400 mg. The tumor tissue was prepared for the isolation of tumor-infiltrating lymphocytes (TILs). The rest of one section was fixed in 10% formaldehyde and embedded in paraffin; the other was stored at a temperature below −70° C.

For the setting “mean±SEM, anti-hPD-1 20 mg/kg IP alone (G4)”, “anti-hPD-1: Anti-Human PD-1 antibody, Pembrolizumab, Merck & Co., Inc.” returned a mean tumor volume of 983.84±266.44 mm^3. Moreover, the “mean tumor volume compared with vehicle (in words)” value (vs vehicle (G1), OBI-3424 high-dose 1 mg/kg (G3), anti-hPD-1 20 mg/kg (G4), combinations G5-G7) is “No statistically significant difference”.

Source of the values: patent US20240216401A1, “COMBINATION THERAPY BY USING AKR1C3-ACTIVATED COMPOUND WITH IMMUNE CHECKPOINT INHIBITOR” (OBI Pharma, Inc., priority 2021, published 2024).
